Patent US20240382469A1, “COMBINATION THERAPY WITH DEUTERATED IMIDAZOQUINOLINES” (BIRDIE BIOPHARMACEUTICALS, INC., priority 2021, published 2024)

Experiments:
CT26 tumor cells [1] = test: In vivo efficacy of deuterated compounds in combination with an anti-PD-1 antibody in CT26 animal model; set-up: species or system BALB/c mice; conditions: for tumor size as compared to placebo group and to anti-PD-1 antibody alone group / tumor size over the experimental period: 1.6 μg compound s.c. in combination with 50 μg anti-PD-1 antibody i.p., FIG. 1; for tumor size as compared to placebo group and to anti-PD-1 antibody alone group: days 6, 9 and 12, p<0.05 for both comparisons; for tumor size over the experimental period: followed to day 28
Method: Female BALB/c mice (5 to 6-week-old) were randomly divided into 5 groups (n=5 per group), including (1) placebo (PBS; s.c.); (2) anti-PD-1 antibody (50 μg; i.p.); (3) compound 1 and anti-PD-1 antibody; (4) compound 2 and anti-PD-1 antibody; (5) compound 3 and anti-PD-1 antibody.
To challenge mice, CT26 tumor cells (1×10^6 in 0.1 mL) were injected subcutaneously on day 0. Then, mice in each group received totally three doses of placebo, anti-PD-1 antibody or indicated combination therapy on days 6, 9 and 12. In each dose of combination therapy, 1.6 μg of TLR7/8 agonist (compound 1, 2 or 3) was given subcutaneously, and 50 μg of anti-PD-1 antibody (mAb) was given intraperitoneally. All mice were sacrificed on day 28. The tumor size was determined twice a week by multiplication of caliper measurements based on the modified ellipsoidal formula: Tumor volume=½ (length × width^2). Mice with tumor length over 2 cm were considered dead and mice without measurable or palpable tumor masses were considered tumor-free. The significance of all comparisons was calculated by using t-test, and results considered significant when p<0.05.

CT26 tumor cells [2] = test: In vivo efficacy of compound 1 or proto-resiquimod in combination with an anti-PD-1 antibody in CT26 animal model; set-up: species or system BALB/c mice
Method: Female BALB/c mice (5 to 6-week-old) were randomly divided into 4 groups (n=5 per group), including (1) placebo (PBS; i.p.); (2) anti-PD-1 antibody (50 μg; i.p.); (3) compound 1 (1.6 μg; s.c.) and anti-PD-1 antibody (50 μg; i.p.); (4) proto-resiquimod (1.6 μg; s.c.) and anti-PD-1 antibody (50 μg; i.p.).
To challenge mice, CT26 tumor cells (1×10^6 in 0.1 mL) were injected subcutaneously on day 0. Then, mice in each group received totally three doses of placebo, anti-PD-1 antibody or indicated combination therapy. In placebo group, mice received PBS (s.c.) on days 7, 14 and 21. In anti-PD-1 antibody alone group, mice received 50 μg of anti-PD-1 antibody (i.p.) on days 7, 10 and 14. In each combination therapy group, mice received 1.6 μg of TLR7/8 agonist (compound 1 or proto-resiquimod) (s.c.) on days 7, 14 and 21, and 50 μg of anti-PD-1 antibody (i.p.) on days 7, 10 and 14. All mice were sacrificed on day 28. By using the same method as described in example 1, the tumor size was determined and the significance of all comparisons was calculated.

TC-1 cells = test: In vivo efficacy of compound 1 in combination with various therapeutic antibodies in TC-1 animal model; set-up: species or system C57BL/6 mice; conditions: days 9, 12, 15, 18 and 21, p<0.05, FIG. 3
Method: Female C57BL/6 mice (5 to 6-week-old) were randomly divided into 7 groups (n=5 per group), including (1) placebo (PBS, i.p.); (2) compound 1 (1.6 μg; s.c.); (3) compound 1 and anti-CD137 antibody; (4) compound 1 and anti-TIGIT antibody; (5) compound 1 and anti-OX40 antibody; (6) compound 1 and anti-LAG3 antibody; (7) compound 1 and anti-CD47 antibody.
To challenge, each mouse was subcutaneously injected with 1×10^6 TC-1 cells in a volume of 0.1 mL into the left flank at day 0. Then, mice in each group received totally five doses of placebo, compound 1 or indicated combination therapy on days 9, 12, 15, 18 and 21. In each dose of combination therapy, 1.6 μg of compound 1 was given subcutaneously, and 200 μg of therapeutic antibody (anti-CD137, anti-TIGIT, anti-OX40, anti-LAG3 or anti-CD47 antibody) was given intraperitoneally. All mice were sacrificed on day 34. By using the same method as described in example 1, the tumor size was determined and the significance of all comparisons was calculated.

Row | Compound | tumor size as compared to placebo group and to anti-PD-1 antibody alone group (CT26 tumor cells [1]) | tumor size over the experimental period (CT26 tumor cells [1]) | tumor inhibitory effect compared with the other deuterated compounds (CT26 tumor cells [1]; in combination with anti-PD-1 antibody, p<0.05 for each comparison) | tumor size (CT26 tumor cells [2]; 1.6 μg TLR7/8 agonist s.c. days 7, 14 and 21 in combination with 50 μg anti-PD-1 antibody i.p. days 7, 10 and 14, FIG. 2) | tumor inhibitory effect compared with proto-resiquimod (CT26 tumor cells [2]; in combination with anti-PD-1 antibody, p<0.05) | tumor size as compared to placebo group or compound 1 alone group (TC-1 cells; 1.6 μg compound 1 s.c. in combination with 200 μg anti-CD47 antibody i.p.) | tumor size as compared to placebo group or compound 1 alone group (TC-1 cells; 1.6 μg compound 1 s.c. in combination with 200 μg anti-CD137 antibody i.p.) | tumor size as compared to placebo group or compound 1 alone group (TC-1 cells; 1.6 μg compound 1 s.c. in combination with 200 μg anti-LAG3 antibody i.p.) | tumor size as compared to placebo group or compound 1 alone group (TC-1 cells; 1.6 μg compound 1 s.c. in combination with 200 μg anti-OX40 antibody i.p.) | tumor size as compared to placebo group or compound 1 alone group (TC-1 cells; 1.6 μg compound 1 s.c. in combination with 200 μg anti-TIGIT antibody i.p.)
1 | [2H]C([2H])([2H])C([2H])([2H])OCc1nc2c(N)nc3ccccc3c2n1CC(C)(C)O [Compound 1] | significantly reduce tumor size | almost completely suppressed tumor size | outstanding and significant tumor inhibitory effect than compounds 2 or 3 | potently inhibit tumor size | more significant tumor inhibitory effect than proto-resiquimod | significantly suppress tumor size | significantly suppress tumor size | significantly suppress tumor size | significantly suppress tumor size | significantly suppress tumor size
2 | [2H]C([2H])([2H])C(O)(C([2H])([2H])[2H])C([2H])([2H])n1c(COCC)nc2c(N)nc3ccccc3c21 [Compound 2] | significantly reduce tumor size | initially well controlled, however, slightly grew at the last week |  |  |  |  |  |  |  | 
3 | [2H]C([2H])([2H])C(O)(Cn1c(COCC)nc2c(N)nc3ccccc3c21)C([2H])([2H])[2H] [Compound 3] | significantly reduce tumor size | initially well controlled, however, slightly grew at the last week |  |  |  |  |  |  |  | 
